Experimental data published in patent US20070015733A1, “Aryl Phosphate Derivatives of d4T having Activity Against Resistant HIV Strains” (Parker Hughes Institute, priority 1998, published 2007).
Like-named read-outs stand apart in the source and are kept apart here.

Experiments:
[1] = Microculture tetrazolium assay (MTA) cytotoxicity in PBMNC; details: human
Procedure: (§1) Percent inhibition of viral replication was calculated by comparing the p24 and RT activity values from the test substance-treated infected cells with those from untreated infected cells. In parallel, the cytotoxicity of the compounds was examined using a microculture tetrazolium assay (MTA) of cell proliferation, as described.in the Zarling, Enrice, and Uckun articles Supra).
(§2) Cellular Assays of Anti-HIV Activity and Cytotoxicity. […] Percent viral inhibition was calculated by comparing the RT activity values from the test substance-treated infected cells with RT values from untreated infected cells (i.e., virus controls).
(§3) Antiviral susceptibility assays. Phenotypic drug susceptibility studies of HIV-1 isolates and strains were performed by measuring the production of the p24 gag protein in peripheral blood mononuclear cells (PBMC) from seronegative healthy volunteers in the presence of increasing concentrations of the anti-HIV agent using the quantitative Coulter HIV-1 p24 antigen ezyme immunoassay (EIA) and HIV-1 p24 Antigen Kinetic Standard (Beckman Coulter), as previously described (Uckun, 1998, Antimicrobial Agents and Chemotherapy 37(4): 835-38). Informed consent was obtained from the blood donors according to DHHS guidelines using consent forms approved by the Institutional Review Board. In brief, PBMC were cultured for 72 h in RPMI 1640 medium (Gibco) supplemented with 20% (vol/vol) heat-inactivated fetal bovine serum, 5% human interleukin-2 (Zeptometrix), 2 mM L-glutamine, 25 mM HEPES, 2 g/L NaHCO3, 100 U/ml penicillin/streptomycin (Gibco), 50 μg/ml gentamicin (Gibco), and 5 μg/ml phytohemagglutinin-P (PHA-P) (Sigma) for 24-72 hours prior to exposure to HIV at a multiplicity of infection of 0.001-0.1 during a 1-h adsorbtion period at 37±1° C. in a humidified 5-7% CO2 atmosphere. Subsequently, cells were cultured in 96-well microtiter plates (100 μl/well; 2×10^6 cells/ml, triplicate wells) in the presence of the anti-HIV agents at 6-7 different concentrations ranging from 0.0001 μM to 100 μM, and 25 μL aliquots of culture supernatants were removed from the wells on day 6 after infection for p24 EIA, as previously described (Uckun, 1998, Antimicrobial Agents and Chemotherapy, 37(4):835-38). Controls included uninfected and untreated cells (background control) and infected but untreated (virus control) cells. The p24 EIA utilizes a murine monoclonal antibody to HIV core protein used to coat microwell strips to which the antigen present in the test culture supernatant samples binds. Percent inhibition of viral replication was calculated by comparing the p24 values from the test substance-treated infected cells with p24 values from untreated infected cells (i.e., virus controls). The IC50 values were determined using the Statview statistics program (SAS Institute, Inc.). In parallel, the effects of various treatments on cell viability were also examined as previously described (Uckun, 1998, Antimicrobial Agents and Chemotherapy, 42:383-388). In brief, noninfected PBMC were treated with each compound for 5 days under identical experimental conditions. A microculture tetrazolium assay (MTA) was performed to quantitate cellular proliferation (Uckun, 1998, Antimicrobial Agents and Chemotherapy, 42:383-388).
In parallel, the cytotoxicity of the compounds was examined using a microculture tetrazolium assay (MTA) of cell proliferation, as described (in the Zarling, Enrice, and Uckun articles Supra).

[2] = Microculture tetrazolium assay (MTA) cytotoxicity in CEM cells; details: human
Procedure: as §1, §2

HIV-1 (strain: HTLVIIIB) = assay: microbe, parasite or virus in culture; format: cell-based; details: Human immunodeficiency virus 1, read-out: PBMNC IC50 [RT], PBMNC; unit not given in Table 5 (0.04 = 40 nM)
Procedure: as §1, §2

[3] = tested on: AZT- and NNI-resistant HIV-1 (strain: RTMDR-1); assay: Inhibition of RTMDR-1 (HIV-MDR) replication in PBMNC (RT activity); format: cell-based
Procedure: as §2

[4] = tested on: HIV-1 (HTLVIIIB) in TK-deficient CEM T-cells; assay: Inhibition of HIV-1 replication in TK-deficient CEM T-cells (p24 / RT activity); format: cell-based
Procedure: as §1, §2

HIV-2 (Strain: CBL-20) = assay: Inhibition of HIV-2 replication in PBMNC (RT activity); format: cell-based
Procedure: (P-AZT) and with AZT. The incubation and analysis methods used were as described above for Example 3.
as §2

HIV-1 HTLVIIIB = assay: microbe, parasite or virus in culture; details: for IC50 / IC90: Human immunodeficiency virus 1, PBMC
Procedure: In vitro assays of anti-HIV-1 activity. Normal human peripheral blood mononuclear cells (PBMNC) from HIV-negative donors were cultured 72 hours in RPMI 1640 supplemented with 20% (v/v) heat-inactivated fetal bovine serum (FBS), 3% interleukin-2, 2 mM L-glutamine, 25 mM HEPES, 2 g/L NaHCO3, […], and […] prior to exposure to HIV-1 at a multiplicity of infection (MOI) of 0.1 during a 1 hour adsorption period at 37° C. in a humidified 5% CO2 atmosphere. Subsequently, cells were cultured in 96-well microtiter plates ([…]; 2×10^6 cells/mL) in the presence of various concentrations of d4T phosphoramidates and aliquots of culture supernatants were removed from the wells on the 7th day after infection for p24 antigen assays, as previously described (Uckun et al., 1998, Antimicrobial Agents and Chem., 42(2):383-388). The applied p24 enzyme immunoassay (EIA) was the unmodified kinetic assay commercially available from Coulter Corporation/Immunotech, Inc. (Westbrooke, Me.), which utilizes a murine mAb to HIV core protein coated onto microwell strips to which the antigen present in the test culture supernatant samples binds. Percent viral inhibition was calculated by comparing the p24 values from untreated infected cells (i.e., virus controls).
The anti-HIV activity of the compounds was examined by evaluating their ability to inhibit HIV replication in peripheral blood mononuclear cells using previously described procedures (Uckun et al., 1998, Antimicrobial Agents and Chem., 42(2):383-388). Percent inhibition of viral replication was calculated by comparing the p24 antigen levels from the test substance-treated infected cells with those from vehicle-treated infected cells.
as §3, with “Inc.).” for “Inc.). In parallel, the effects of various treatments on cell viability were also examined as previously described (Uckun, 1998, Antimicrobial Agents and Chemotherapy, 42:383-388). In brief, noninfected PBMC were treated with each compound for 5 days under identical experimental conditions. A microculture tetrazolium assay (MTA) was performed to quantitate cellular proliferation (Uckun, 1998, Antimicrobial Agents and Chemotherapy, 42:383-388).”

[5] = tested on: NRTI-resistant recombinant HIV-1 isolates; assay: RT activity assay, multi-NRTI-resistant recombinant HIV-1 clones; format: cell-based
[6] = tested on: NRTI-resistant recombinant HIV-1 isolates; assay: p24 assay, multi-NRTI-resistant recombinant HIV-1 clones; format: cell-based
[7] = tested on: NRTI-resistant recombinant HIV-1 isolates; assay: Documented fold decreased susceptibility of recombinant HIV-1 clones; format: cell-based
[8] = Pharmacokinetics after intravenous or oral administration; format: in vivo, mice; details: intravenous administration
[9] = Stability in plasma, whole blood, gastric fluid and intestinal fluid; format: in vitro ADME; details: plasma or whole blood
Procedure: Ala-d4T-MP is stable both in plasma and in whole blood. […] This hypothesis is consistent with the formation of a significant amount of d4T after incubation of d4T-5′-[p-bromophenyl methoxyalaninyl phosphate] with a liver homogenate.
Orally administered d4T-5′-[p-bromophenyl methoxyalaninyl phosphate] also yielded Ala-d4T-MP and d4T as the major metabolites. […] This metabolite can be absorbed in the intestine and then further metabolized to yield d4T in the blood. The tmax and t1/2 values for d4T in mice were longer when derived from orally administered d4T-5′-[p-bromophenyl methoxyalaninyl phosphate] (42.4 minutes and 99.0 minutes, respectively) than from orally administered d4T (5 minutes and 18 minutes, respectively). The tmax value is higher but the t1/2 value is lower for orally administered d4T-5′-[p-bromophenyl methoxyalaninyl phosphate] compared to intravenously administered d4T-5′-[p-bromophenyl methoxyalaninyl phosphate]. […] However, the bioavailability of d4T metabolized from d4T-5′-[p-bromophenyl methoxyalaninyl phosphate] (48%) was lower than that of orally administered d4T (98%).

Compound: COC(=O)C(C)NP(=O)(OC[C@H]1O[C@@H](n2cc(C)c(=O)[nH]c2=O)CC1N=[N+]=[N-])Oc1ccc(Br)cc1 (some centres unmarked) [Compound 5c, AZT-5′-(para-bromophenylmethoxyalaninyl phosphate)]
- IC50 at 5 days [1]: > 10000 nM
- IC50 [2]: > 10000 nM
- IC50 (HIV-1 (strain: HTLVIIIB)): 4 nM
- IC50 ([3]; Human immunodeficiency virus 1, read-out: HIV-MDR IC50 [RT]): 1500 nM
- IC50 ([3]; Human immunodeficiency virus 1, read-out: IC50 against HIV-MDR): 1500 nM
- IC50 ([3]; Human immunodeficiency virus 1, read-out: RTMDR-1 IC50 [RT]): 1500 nM
- antiviral activity against RTMDR-1 (in words) ([3]; PBMNC): not effective
- IC50 ([4]; Human immunodeficiency virus 1, CCRF-CEM, TK-deficient CEM cells, read-out: IC50 value for inhibition of RT activity): 40 nM
- IC50 ([4]; Human immunodeficiency virus 1, T-cell, TK-deficient CEM T-cells, Table 5, read-out: CEM IC50 [RT]): 40 nM
- times more effective than AZT in inhibiting HIV replication ([4]; TK-deficient CEM cells): 5 times
- IC50 (HIV-2 (Strain: CBL-20); Human immunodeficiency virus 2, read-out: HIV-2 IC50 [RT]): 3900 nM
- antiviral activity against HIV-2 (in words) (HIV-2 (Strain: CBL-20); PBMNC): not effective

Compound: Nc1ccn([C@@H]2CS[C@H](CO)O2)c(=O)n1 [lamivudine]
- IC50 (HIV-1 HTLVIIIB): 40 ± 25 nM
- IC90 (HIV-1 HTLVIIIB): 1820 ± 747 nM
- IC50 ([5]; Human immunodeficiency virus 1, read-out: IC50 (nM), RT, recombinant clone 1617-1): > 10000 nM
- IC50 ([5]; Human immunodeficiency virus 1, read-out: IC50 (nM), RT, recombinant clone 4755-5): > 10000 nM
- IC50 ([5]; Human immunodeficiency virus 1, read-out: IC50 (nM), RT, recombinant clone 7295-1): > 10000 nM
- IC50 ([5]; Human immunodeficiency virus 1, read-out: IC50 (nM), RT, recombinant clone 7324-1): 634 nM
- IC50 ([5]; Human immunodeficiency virus 1, read-out: IC50 (nM), RT, recombinant clone 52534-2): > 10000 nM
- IC50 ([5]; Human immunodeficiency virus 1, read-out: IC50 (nM), RT, recombinant clone 56252-1): 7210 nM
- IC50 ([5]; Human immunodeficiency virus 1, read-out: mean IC50, RT, mean over 6 multi-NRTI-resistant clones): 7970 ± 1540 nM
- IC50 ([6]; Human immunodeficiency virus 1, read-out: IC50 (nM), p24, recombinant clone 1617-1 (151 complex)): > 10000 nM
- IC50 ([6]; Human immunodeficiency virus 1, read-out: IC50 (nM), p24, recombinant clone 4755-5): > 10000 nM
- IC50 ([6]; Human immunodeficiency virus 1, read-out: IC50 (nM), p24, recombinant clone 7295-1): > 10000 nM
- IC50 ([6]; Human immunodeficiency virus 1, read-out: IC50 (nM), p24, recombinant clone 7324-1): 800 nM
- IC50 ([6]; Human immunodeficiency virus 1, read-out: IC50 (nM), p24, recombinant clone 52252-1 in Table 18, 56252-1 in Tables 19 and 20 (K65R, 151 complex)): > 10000 nM
- IC50 ([6]; Human immunodeficiency virus 1, read-out: IC50 (nM), p24, recombinant clone printed 52534-1 in Table 18, 52534-2 in Tables 19 and 20 (69 insertion complex)): > 10000 nM
- mean reduction in susceptibility ([7]; mean over 6 recombinant clones): 215.5 fold
- median reduction in susceptibility ([7]; median over 6 recombinant clones): 300 fold

Compound: Cc1cn([C@H]2C=C[C@@H](COP(=O)(O)NC(C)C(=O)O)O2)c(=O)[nH]c1=O (some centres unmarked) [Ala-d4T-MP, alaninyl-d4T-monophosphate]
- elimination half-life (t1/2) of the administered substance [8]: 28.5 min
- stability in plasma and whole blood [9]: stable

Compound: Cc1c(O)cccc1C(=O)N[C@@H](CSc1ccccc1)[C@H](O)CN1C[C@H]2CCCC[C@H]2C[C@H]1C(=O)NC(C)(C)C [nelfinavir]
- CC50 at 5 days [1]: 3500 ± 1400 nM
- SI(CC50/IC50) (HIV-1 HTLVIIIB): 583
- IC50 (HIV-1 HTLVIIIB): 6 ± 3 nM
- IC90 (HIV-1 HTLVIIIB): 84 ± 38 nM
